Laboratory results from ChEMBL document CHEMBL1201862, “PubChem BioAssay data set” (2004).
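Cultured in 96-well plates, cells were exposed to test compound for 48 hours across five concentrations. GI50 is the concentration that inhibits growth by half.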 Activity calls are given as the source filed them. No stated cut-off is given here; in the data, active = GI50 up to about 1.1 µM and inactive = higher.

What was measured:
Assay in all cases: NCI tumour cell line growth inhibition, 48 h
BT-549 = system: BT-549
CAKI-1 = system: CAKI-1
CCRF-CEM = system: CCRF-CEM
EKVX = system: EKVX
HCT-116 = system: HCT-116
K562 = system: K562
M14 = system: M14
MCF7 = system: MCF7
MDA-MB-231 = system: MDA-MB-231
MDA-N = system: MDA-N
NCI-H460 = system: NCI-H460
OVCAR-4 = system: OVCAR-4
PC-3 = system: PC-3
SK-MEL-5 = system: SK-MEL-5
SW-620 = system: SW-620
T47D = system: T47D
TK-10 = system: TK-10
UACC-257 = system: UACC-257
UACC-62 = system: UACC-62
NCI-H522 = system: NCI-H522

Compound	GI50 (BT-549)	GI50 (CAKI-1)	GI50 (CCRF-CEM)	GI50 (EKVX)	GI50 (HCT-116)	GI50 (K562)	GI50 (M14)	GI50 (MCF7)	GI50 (MDA-MB-231)	GI50 (MDA-N)	GI50 (NCI-H460)	GI50 (OVCAR-4)	GI50 (PC-3)	GI50 (SK-MEL-5)	GI50 (SW-620)	GI50 (T47D)	GI50 (TK-10)	GI50 (UACC-257)	GI50 (UACC-62)	GI50 (NCI-H522)
C#CCn1c(=O)ccn(/C(=C/C(=O)OCC)C(=O)OCC)c1=O	10.5 µM (inactive)	1.58 µM (inactive)	0.61 µM (active)	5.62 µM (inactive)	6.15 µM (inactive)	3.36 µM (inactive)	4.05 µM (inactive)	3.18 µM (inactive)	14.8 µM (inactive)	17.2 µM (inactive)	2.69 µM (inactive)	4.62 µM (inactive)	14.2 µM (inactive)	14.5 µM (inactive)	1.86 µM (inactive)	2.67 µM (inactive)	1.77 µM (inactive)	15 µM (inactive)	14 µM (inactive)	
CCOC(=O)c1nc2ccccc2nc1Nc1cc(OC)c(OC)c(OC)c1	> 100 µM (inactive)	> 100 µM (inactive)	> 100 µM (inactive)	> 100 µM (inactive)	> 100 µM (inactive)	> 100 µM (inactive)	> 100 µM (inactive)	> 100 µM (inactive)	> 100 µM (inactive)	> 100 µM (inactive)	> 100 µM (inactive)	> 100 µM (inactive)		> 100 µM (inactive)		> 100 µM (inactive)	> 10 µM (inactive)		> 100 µM (inactive)	> 100 µM (inactive)
CC(=O)OCC(C)(COC(C)=O)N1C(=O)C2C3c4ccccc4C(c4ccccc43)C2C1=O (stereo unspecified)	> 100 µM (inactive)	> 100 µM (inactive)	> 100 µM (inactive)	> 100 µM (inactive)	33 µM (inactive)	> 100 µM (inactive)	> 100 µM (inactive)	> 100 µM (inactive)	> 100 µM (inactive)	28.1 µM (inactive)	> 100 µM (inactive)		> 100 µM (inactive)	> 100 µM (inactive)	> 100 µM (inactive)	> 100 µM (inactive)	> 100 µM (inactive)	> 100 µM (inactive)	> 100 µM (inactive)	
CCOC(=O)c1ccc(C(=O)/C(C#N)=C2\CCCN2)[nH]1	> 100 µM (inactive)	> 100 µM (inactive)	63.2 µM (inactive)	11.7 µM (inactive)	82.4 µM (inactive)	52.6 µM (inactive)	> 100 µM (inactive)	98.4 µM (inactive)	> 100 µM (inactive)	30.1 µM (inactive)	> 100 µM (inactive)	> 100 µM (inactive)	67.8 µM (inactive)	41.9 µM (inactive)	79.4 µM (inactive)	> 100 µM (inactive)		> 100 µM (inactive)	> 100 µM (inactive)	
CCCCC(C#N)(OP1(=O)OC(c2ccccc2)C(C)N1C)c1ccccc1 (stereo unspecified)	20.3 µM (inactive)	18.7 µM (inactive)	20.3 µM (inactive)	22.5 µM (inactive)	16.2 µM (inactive)	19 µM (inactive)	20.7 µM (inactive)	19.9 µM (inactive)	15.7 µM (inactive)	16.4 µM (inactive)	16.1 µM (inactive)		17 µM (inactive)	17.3 µM (inactive)	16.4 µM (inactive)	21.3 µM (inactive)	18.9 µM (inactive)	18.3 µM (inactive)	14.3 µM (inactive)	17.2 µM (inactive)
COc1cc2c(cc1OC)-c1[nH]c3ccc([N+](=O)[O-])cc3c1CC(=O)N2	3.15 µM (inactive)	2.89 µM (inactive)	0.975 µM (active)	5.87 µM (inactive)	0.472 µM (active)	1.3 µM (inactive)	5.38 µM (inactive)	3.59 µM (inactive)	4.15 µM (inactive)	4.48 µM (inactive)	1.95 µM (inactive)	3.19 µM (inactive)	3.29 µM (inactive)	1.58 µM (inactive)	0.849 µM (active)	7.28 µM (inactive)	2.37 µM (inactive)	8.49 µM (inactive)	5.4 µM (inactive)	
COc1ccc(N2C(=O)/C(=C/c3ccc(N(CCC#N)CCC#N)cc3)N=C2c2ccccc2)c(OC)c1	> 100 µM (inactive)	> 100 µM (inactive)	21.9 µM (inactive)	> 100 µM (inactive)	69.2 µM (inactive)	18.1 µM (inactive)	> 100 µM (inactive)	61.7 µM (inactive)	> 100 µM (inactive)	> 100 µM (inactive)	> 100 µM (inactive)	> 100 µM (inactive)		> 100 µM (inactive)	> 100 µM (inactive)	27.1 µM (inactive)	> 100 µM (inactive)	> 100 µM (inactive)	> 100 µM (inactive)	22 µM (inactive)
CCOc1cc(NC(C)=O)ccc1C(=O)NNS(=O)(=O)c1ccc(NC(C)=O)cc1	> 100 µM (inactive)	54.6 µM (inactive)	38.9 µM (inactive)	56 µM (inactive)	44.1 µM (inactive)	38 µM (inactive)	56 µM (inactive)	40.6 µM (inactive)		16.7 µM (inactive)	39.6 µM (inactive)	73.6 µM (inactive)	46.7 µM (inactive)	22.3 µM (inactive)	39.2 µM (inactive)	> 100 µM (inactive)		> 100 µM (inactive)	57.3 µM (inactive)	37.4 µM (inactive)
CC(C)(C)NC(=O)[C@H]1CC[C@H]2[C@@H]3CC=C4NC(=O)CC[C@]4(C)[C@H]3CC[C@]12C	> 100 µM (inactive)		> 100 µM (inactive)	> 100 µM (inactive)	> 100 µM (inactive)	> 100 µM (inactive)	> 100 µM (inactive)	32.4 µM (inactive)	29.3 µM (inactive)	> 100 µM (inactive)	> 100 µM (inactive)	50.1 µM (inactive)	> 100 µM (inactive)	> 100 µM (inactive)	> 100 µM (inactive)	> 100 µM (inactive)	46.8 µM (inactive)	69.3 µM (inactive)	> 100 µM (inactive)	36.4 µM (inactive)
CC1=C(\C=C/C(C)=C/C=C/C(C)=C/C=C/C=C(C)\C=C\C=C(C)/C=C/C2=C(C)CCCC2(C)C)C(C)(C)CCC1	64.4 µM (inactive)		> 100 µM (inactive)		22.1 µM (inactive)	> 100 µM (inactive)	> 100 µM (inactive)	75.2 µM (inactive)	> 100 µM (inactive)	40 µM (inactive)	> 100 µM (inactive)	> 100 µM (inactive)	> 100 µM (inactive)	> 100 µM (inactive)	> 100 µM (inactive)	19.5 µM (inactive)	> 100 µM (inactive)	> 100 µM (inactive)	> 100 µM (inactive)	35.4 µM (inactive)
COc1ccc(-c2cc(-c3cc(F)c(Cl)cc3Cl)on2)cc1OC	33 µM (inactive)	45 µM (inactive)	12.5 µM (inactive)	75.5 µM (inactive)	29.2 µM (inactive)	3.96 µM (inactive)	24.9 µM (inactive)		20.1 µM (inactive)	2.44 µM (inactive)	26.2 µM (inactive)	10.1 µM (inactive)	18.7 µM (inactive)	9.51 µM (inactive)	7.93 µM (inactive)	15.6 µM (inactive)	49.5 µM (inactive)	22.4 µM (inactive)		15.6 µM (inactive)
O=S(=O)(NC1CCCCC1)c1ccc2c(c1)OCCOCCOCCOCCO2	> 100 µM (inactive)	> 100 µM (inactive)	> 100 µM (inactive)	> 100 µM (inactive)	> 100 µM (inactive)	> 100 µM (inactive)	> 100 µM (inactive)	> 100 µM (inactive)	> 100 µM (inactive)	> 100 µM (inactive)	> 100 µM (inactive)		> 100 µM (inactive)	> 100 µM (inactive)	> 100 µM (inactive)	> 100 µM (inactive)	> 100 µM (inactive)	> 100 µM (inactive)	> 100 µM (inactive)	> 100 µM (inactive)
CCCCC(C(=O)N/N=C/c1ccc([N+](=O)[O-])o1)C(=O)N/N=C/c1ccc([N+](=O)[O-])o1	5.61 µM (inactive)	4.06 µM (inactive)	0.977 µM (active)	13.4 µM (inactive)	1.36 µM (inactive)	3.28 µM (inactive)	3.81 µM (inactive)	4.51 µM (inactive)	3.81 µM (inactive)	3.53 µM (inactive)	15.1 µM (inactive)	1.74 µM (inactive)	2.81 µM (inactive)	3.37 µM (inactive)	2.54 µM (inactive)	3.46 µM (inactive)	2.28 µM (inactive)		2.91 µM (inactive)	
COc1ccc(OC)c2sc(N3C(=O)/C(=C/c4ccc(Cl)cc4)N=C3c3ccccc3)nc12	> 100 µM (inactive)	> 100 µM (inactive)	37 µM (inactive)	> 100 µM (inactive)	> 100 µM (inactive)	26.2 µM (inactive)	> 100 µM (inactive)	29.7 µM (inactive)	> 100 µM (inactive)	34.2 µM (inactive)	80.5 µM (inactive)		58.1 µM (inactive)	65 µM (inactive)	67.9 µM (inactive)	23.3 µM (inactive)	72.6 µM (inactive)	51.2 µM (inactive)	76.6 µM (inactive)	48.9 µM (inactive)
C(=C/c1ccc2nc(-c3ccc(/C=C/C=N/NC4=NCCCN4)cc3)cn2c1)/C=N/NC1=NCCCN1	> 100 µM (inactive)	12.1 µM (inactive)	35.7 µM (inactive)	18.8 µM (inactive)	6.81 µM (inactive)	4.39 µM (inactive)	66.4 µM (inactive)		15.2 µM (inactive)	43.9 µM (inactive)	13.3 µM (inactive)	> 100 µM (inactive)	20.3 µM (inactive)	> 100 µM (inactive)		40.9 µM (inactive)	19.5 µM (inactive)	10.6 µM (inactive)	30.1 µM (inactive)	9.64 µM (inactive)
